Test results reported in ChEMBL document CHEMBL4190186 (Medchemcomm, 2016).
pIC50: −log10 of the molar value. Active and inactive are the calls of the source. No cut-off for these calls is given here.

Columns and labels:
LN-18 [1] = assay: Cytotoxicity against human LN18 cells harboring TP53 mutation assessed as cell death at 20 uM after 48 hrs by MTT assay relative to control; format: functional
T98G [2] = assay: Cytotoxicity against PTEN/TP53 deficient human T98G cells assessed as cell death at 20 uM after 48 hrs by MTT assay relative to control; format: functional
NCI-H460 = assay: Cytotoxicity against human NCI-H460 cells; format: functional, cell-based
LN-18 [3] = assay: Cytotoxicity against human LN18 cells harboring TP53 mutation after 48 hrs by MTT assay; format: functional, cell-based
T98G [4] = assay: Cytotoxicity against PTEN/TP53 deficient human T98G cells after 48 hrs by MTT assay; format: functional, cell-based
LN-18 [5] = assay: Induction of apoptosis in human LN18 cells harboring TP53 mutation assessed as increase in cleaved caspase-3 expression at 20 uM after 24 to 48 hrs by Western blot analysis; format: functional, cell-based
T98G [6] = assay: Induction of apoptosis in PTEN/TP53 deficient human T98G cells assessed as increase in cleaved caspase-3 expression at 20 uM after 24 to 48 hrs by Western blot analysis; format: functional, cell-based
LN-18 [7] = assay: Induction of apoptosis in human LN18 cells harboring TP53 mutation assessed as increase in cleaved caspase-8 expression at 20 uM after 24 to 48 hrs by Western blot analysis; format: functional, cell-based
T98G [8] = assay: Induction of apoptosis in PTEN/TP53 deficient human T98G cells assessed as increase in cleaved caspase-8 expression at 20 uM after 24 to 48 hrs by Western blot analysis; format: functional, cell-based
LN-18 [9] = assay: Induction of apoptosis in human LN18 cells harboring TP53 mutation assessed as increase in cleaved caspase-9 expression at 20 uM after 24 to 48 hrs by Western blot analysis; format: functional, cell-based
T98G [10] = assay: Induction of apoptosis in PTEN/TP53 deficient human T98G cells assessed as increase in cleaved caspase-9 expression at 20 uM after 24 to 48 hrs by Western blot analysis; format: functional, cell-based
LN-18 [11] = assay: Induction of apoptosis in human LN18 cells harboring TP53 mutation assessed as increase in cleaved PARP expression at 20 uM after 24 to 48 hrs by Western blot analysis; format: functional, cell-based
T98G [12] = assay: Induction of apoptosis in PTEN/TP53 deficient human T98G cells assessed as increase in cleaved PARP expression at 20 uM after 24 to 48 hrs by Western blot analysis; format: functional, cell-based
LN-18 [13] = assay: Effect on H3K27me3 levels in human LN18 cells harboring TP53 mutation at 20 uM after 24 to 48 hrs by Western blot analysis; format: ADME, cell-based; conditions: ln-18, 20 µM
T98G [14] = assay: Effect on H3K27me3 levels in PTEN/TP53 deficient human T98G cells at 20 uM after 24 to 48 hrs by Western blot analysis; format: ADME, cell-based
Astrocyte = assay: Cytotoxicity against rat primary cortical astrocytes assessed as reduction in cell viability at 5 to 40 uM after 48 hrs by MTT assay relative to control; format: cell-based

Structure (SMILES): COc1ccc(-c2ccc(/C=C/C(=O)NO)cc2)cc1
- Activity (LN-18 [1]): Active
- Activity (T98G [2]): Active

Structure (SMILES): O=C1Nc2ccc(Cl)cc2/C1=C/c1ccc(-c2ccccc2)cc1
- Activity (LN-18 [1]): Active
- Activity (T98G [2]): Active

Structure (SMILES): O=C1c2ccccc2C(=O)c2c(-c3ccccc3)nsc21
- Activity (LN-18 [1]): >50 - 70%
- pIC50 (NCI-H460): 6.44
- Activity (T98G [2]): >50 - 70%
- Activity (LN-18 [3]): Dose-dependent effect
- Activity (T98G [4]): Dose-dependent effect
- Activity (LN-18 [5]): inactive
- Activity (T98G [6]): inactive
- Activity (LN-18 [7]): inactive
- Activity (T98G [8]): inactive
- Activity (LN-18 [9]): inactive
- Activity (T98G [10]): inactive
- Activity (LN-18 [11]): inactive
- Activity (T98G [12]): inactive
- Activity (LN-18 [13]): Non-Toxic
- Activity (T98G [14]): Non-Toxic
- Activity (Astrocyte): > 50%

Structure (SMILES): O=C1/C(=C\c2ccc(-c3ccccc3)cc2)c2ccccc2N1O
- Activity (LN-18 [1]): Active
- Activity (T98G [2]): Active

Structure (SMILES): NNC(=O)N/C=C/c1ccc(-c2ccccc2)cc1
- Activity (LN-18 [1]): Active
- Activity (T98G [2]): Active

Structure (SMILES): Nc1nsc2c1C(=O)c1ccccc1C2=O
- Activity (LN-18 [1]): >50 - 70%
- pIC50 (NCI-H460): 6.55
- Activity (T98G [2]): >50 - 70%

Structure (SMILES): NNC(=O)/C=C/c1ccc(-c2ccccc2)cc1
- Activity (LN-18 [1]): Active
- Activity (T98G [2]): Active

Structure (SMILES): O=C1/C(=C\c2ccc(O)cc2)c2ccccc2N1O
- Activity (LN-18 [1]): inactive
- Activity (T98G [2]): inactive

Structure (SMILES): O=C(/C=C/c1ccc(-c2ccccc2)cc1)NO
- Activity (LN-18 [1]): Active
- Activity (T98G [2]): Active

Structure (SMILES): Cc1[nH]c2ccccc2c1/C=C/c1ccccc1-c1ccc(/C=C/C(=O)Nc2cc(-c3ccccc3)ccc2O)cc1
- Activity (LN-18 [1]): Active
- Activity (T98G [2]): Active

Structure (SMILES): CN(C)c1nsc2c1C(=O)c1ccccc1C2=O
- Activity (LN-18 [1]): >50 - 70%
- pIC50 (NCI-H460): 6.66
- Activity (T98G [2]): >50 - 70%
- Activity (LN-18 [3]): Dose-dependent effect
- Activity (T98G [4]): Dose-dependent effect
- Activity (LN-18 [5]): inactive
- Activity (T98G [6]): inactive
- Activity (LN-18 [7]): inactive
- Activity (T98G [8]): inactive
- Activity (LN-18 [9]): inactive
- Activity (T98G [10]): inactive
- Activity (LN-18 [11]): inactive
- Activity (T98G [12]): inactive
- Activity (LN-18 [13]): Non-Toxic
- Activity (T98G [14]): Non-Toxic

Structure (SMILES): Cc1[nH]c2ccccc2c1/C=C/c1ccccc1-c1ccc(/C=C/C(=O)NO)cc1
- Activity (LN-18 [1]): >70%
- Activity (T98G [2]): >70%
- Activity (LN-18 [3]): Dose-dependent effect
- Activity (T98G [4]): Dose-dependent effect
- Activity (LN-18 [5]): Active
- Activity (T98G [6]): Active
- Activity (LN-18 [7]): Active
- Activity (T98G [8]): Active
- Activity (LN-18 [9]): Active
- Activity (T98G [10]): Active
- Activity (LN-18 [11]): Active
- Activity (T98G [12]): Active
- Activity (LN-18 [13]): Non-Toxic
- Activity (T98G [14]): Non-Toxic
- Activity (Astrocyte): Non-Toxic

Structure (SMILES): O=C(Nc1ccccc1)Nc1ccc(/C=C2\C(=O)N(O)c3ccccc32)cc1
- Activity (LN-18 [1]): inactive
- Activity (T98G [2]): inactive

Structure (SMILES): O=C(Nc1ccccc1)Nc1ccc(/C=C2\C(=O)Nc3ccccc32)cc1
- Activity (LN-18 [1]): inactive
- Activity (T98G [2]): inactive

Structure (SMILES): O=C1Nc2ccccc2/C1=C/c1ccc(-c2ccccc2)cc1
- Activity (LN-18 [1]): Active
- Activity (T98G [2]): Active

Structure (SMILES): CON1C(=O)/C(=C\c2ccc(-c3ccccc3)cc2)c2ccccc21
- Activity (LN-18 [1]): Active
- Activity (T98G [2]): Active
